Experiments:
Test in all cases: In vitro antibacterial activity, agar dilution MIC
Assay type in all cases: cell-based
[1] = test system: Staphylococcus aureus ATCC 6538P; settings: code AA, BHI agar, 35-37° C., 20 to 24 hours, unit assumed
Protocol: (§1) Representative compounds of the present invention were assayed in vitro for antibacterial activity as follows: Twelve petri dishes containing successive aqueous dilutions of the test compound mixed with 10 mL of sterilized Brain Heart Infusion (BHI) agar (Difco 0418-01-5) were prepared. Each plate was inoculated with 1:100 (or 1:10 for slow-growing strains, such as Micrococcus and Streptococcus) dilutions of up to 32 different microorganisms, using a Steers replicator block. The inoculated plates were incubated at 35-37° C. for 20 to 24 hours. In addition, a control plate, using BHI agar containing no test compound, was prepared and incubated at the beginning and end of each test.
(§2) An additional plate containing a compound having known susceptibility patterns for the organisms being tested and belonging to the same antibiotic class as the test compound was also prepared and incubated as a further control, as well as to provide test-to-test comparability.
(§3) After incubation, each plate was visually inspected. The minimum inhibitory concentration (MIC) was defined as the lowest concentration of drug yielding no growth, a slight haze, or sparsely isolated colonies on the inoculum spot as compared to the growth control.

[2] = test system: Micrococcusluteus ATCC 4698; settings: code PP, BHI agar, 35-37° C., 20 to 24 hours, unit assumed
Protocol: as §1, §2, §3

[3] = test system: Nocardia Asteroides ATCC 99700; settings: code VV, BHI agar, 35-37° C., 20 to 24 hours, unit assumed
Protocol: as §1, §2, §3

[4] = test system: Streptococcus bovis A-5169; settings: code JJ, BHI agar, 35-37° C., 20 to 24 hours, unit assumed
Protocol: as §1, §2, §3

[5] = test system: Staphylococcus aureus CMX 553; settings: code FF, BHI agar, 35-37° C., 20 to 24 hours, unit assumed
Protocol: as §1, §2, §3

[6] = test system: Staphylococcus aureus A-5278; settings: code CC, BHI agar, 35-37° C., 20 to 24 hours, unit assumed
Protocol: as §1, §2, §3

[7] = test system: Enterococcusfaecium ATCC X043; settings: code II, BHI agar, 35-37° C., 20 to 24 hours, unit assumed
Protocol: as §1, §2, §3

[8] = test system: Streptococcus Pneumonia ATCC 6303; settings: code XX, BHI agar, 35-37° C., 20 to 24 hours, unit assumed
Protocol: as §1, §2, §3

[9] = test system: Streptococcus Pneumonia GYR 1171; settings: code YY, BHI agar, 35-37° C., 20 to 24 hours, unit assumed
Protocol: as §1, §2, §3

[10] = test system: Mycobacterium smegmatis ATCC 114; settings: code UU, BHI agar, 35-37° C., 20 to 24 hours, unit assumed
Protocol: as §1, §2, §3

[11] = test system: Streptococcus pyogenes EES61; settings: code LL, BHI agar, 35-37° C., 20 to 24 hours, unit assumed
Protocol: as §1, §2, §3

[12] = test system: Staphylococcus aureus CMX 642A; settings: code DD, BHI agar, 35-37° C., 20 to 24 hours, unit assumed
Protocol: as §1, §2, §3

[13] = test system: Staphylococcus aureus 1775; settings: code GG, BHI agar, 35-37° C., 20 to 24 hours, unit assumed
Protocol: as §1, §2, §3

Escherichiacoli SS = settings: code RR, BHI agar, 35-37° C., 20 to 24 hours, unit assumed
Protocol: as §1, §2, §3

[14] = test system: Staphylococcus aureus A-5177; settings: code BB, BHI agar, 35-37° C., 20 to 24 hours, unit assumed
Protocol: as §1, §2, §3

Escherichiacoli DC-2 = settings: code SS, BHI agar, 35-37° C., 20 to 24 hours, unit assumed
Protocol: as §1, §2, §3

[15] = test system: Haemophilislnfluenzae DILL AMP R; settings: code WW, BHI agar, 35-37° C., 20 to 24 hours, unit assumed
Protocol: as §1, §2, §3

Escherichiacoli JUHL = settings: code QQ, BHI agar, 35-37° C., 20 to 24 hours, unit assumed
Protocol: as §1, §2, §3

[16] = test system: Streptococcus pyogenes PIU 2548; settings: code NN, BHI agar, 35-37° C., 20 to 24 hours, unit assumed
Protocol: as §1, §2, §3

[17] = test system: Streptococcus Pneumonia 5649; settings: code ZZA, BHI agar, 35-37° C., 20 to 24 hours, unit assumed
Protocol: as §1, §2, §3

[18] = test system: Streptococcus agalactiae CMX 508; settings: code KK, BHI agar, 35-37° C., 20 to 24 hours, unit assumed
Protocol: as §1, §2, §3

[19] = test system: Staphylococcus epidermidis 3519; settings: code HH, BHI agar, 35-37° C., 20 to 24 hours, unit assumed
Protocol: as §1, §2, §3

[20] = test system: Streptococcus pyogenes 930; settings: code MM, BHI agar, 35-37° C., 20 to 24 hours, unit assumed
Protocol: as §1, §2, §3

[21] = test system: Staphylococcus aureus NCTC 10649M; settings: code EE, BHI agar, 35-37° C., 20 to 24 hours, unit assumed
Protocol: as §1, §2, §3

Candida albicans CCH 442 = settings: code TT, BHI agar, 35-37° C., 20 to 24 hours, unit assumed
Protocol: as §1, §2, §3

[22] = test system: Streptococcus Pneumonia 5979; settings: code ZZ, BHI agar, 35-37° C., 20 to 24 hours, unit assumed
Protocol: as §1, §2, §3

[23] = test system: Micrococcusluteus ATCC 9341; settings: code OO, BHI agar, 35-37° C., 20 to 24 hours, unit assumed
Protocol: as §1, §2, §3

SMILES	Antibacterial Activity (MIC) [1] [µg/mL]	Antibacterial Activity (MIC) [2] [µg/mL]	Antibacterial Activity (MIC) [3] [µg/mL]	Antibacterial Activity (MIC) [4] [µg/mL]	Antibacterial Activity (MIC) [5] [µg/mL]	Antibacterial Activity (MIC) [6] [µg/mL]	Antibacterial Activity (MIC) [7] [µg/mL]	Antibacterial Activity (MIC) [8] [µg/mL]	Antibacterial Activity (MIC) [9] [µg/mL]	Antibacterial Activity (MIC) [10] [µg/mL]	Antibacterial Activity (MIC) [11] [µg/mL]	Antibacterial Activity (MIC) [12] [µg/mL]	Antibacterial Activity (MIC) [13] [µg/mL]	Antibacterial Activity (MIC) (Escherichiacoli SS) [µg/mL]	Antibacterial Activity (MIC) [14] [µg/mL]	Antibacterial Activity (MIC) (Escherichiacoli DC-2) [µg/mL]	Antibacterial Activity (MIC) [15] [µg/mL]	Antibacterial Activity (MIC) (Escherichiacoli JUHL) [µg/mL]	Antibacterial Activity (MIC) [16] [µg/mL]	Antibacterial Activity (MIC) [17] [µg/mL]	further results
CCC1OC(=O)C(C)(O)C(=O)C(C)C(OC2OC(C)CC(N(C)C)C2O)C(C)(OCC=Cc2cnc3ccccc3c2)CC(C)C(=O)C(C)C2NC(=O)OC12C (stereo not drawn) [Example 8, Compound of formula (II): R^a is —CH2CH═CH-(3-quinolinyl), R^b is H, Y and Z together are O, T is —NH—, R is —OH]	0.39	0.2	0.39	0.02	0.78	> 100	0.2	0.03	0.03	3.1	0.02	0.39	> 100	0.2	0.39	> 100	16	> 100	0.39	0.5	Antibacterial Activity (MIC) [18]: 0.01 µg/mL; Antibacterial Activity (MIC) [19]: 0.39 µg/mL; Antibacterial Activity (MIC) [20]: 50 µg/mL; Antibacterial Activity (MIC) [21]: 0.78 µg/mL; Antibacterial Activity (MIC) (Candida albicans CCH 442): > 100 µg/mL; Antibacterial Activity (MIC) [22]: 128 µg/mL; Antibacterial Activity (MIC) [23]: 0.02 µg/mL
CCC1OC(=O)C(C)(O)C(=O)C(C)C(OC2OC(C)CC(N(C)C)C2O)C(C)(OCC(O)CO)CC(C)C(=O)C(C)C2NC(=O)OC12C (stereo not drawn) [Example 3, Compound of formula (II): R^a is —CH2CH(OH)CH2OH, R^b is H, Y and Z together are O, T is —NH—, R is —OH]	> 100	> 100	> 100	50	> 100	> 100	100	64	32	> 100	100	> 100	> 100	100	> 100	> 100	> 128	> 100	> 100	> 128	Antibacterial Activity (MIC) [18]: 50 µg/mL; Antibacterial Activity (MIC) [19]: > 100 µg/mL; Antibacterial Activity (MIC) [20]: > 100 µg/mL; Antibacterial Activity (MIC) [21]: > 100 µg/mL; Antibacterial Activity (MIC) (Candida albicans CCH 442): > 100 µg/mL; Antibacterial Activity (MIC) [22]: > 128 µg/mL; Antibacterial Activity (MIC) [23]: 50 µg/mL
CCC1OC(=O)C(C)(O)C(=O)C(C)C(OC2OC(C)CC(N(C)C)C2O)C(C)(OC)CC(C)C(=O)C(C)C2N(CCCCc3ccccc3)C(=O)OC12C (stereo not drawn) [Example 2, Compound of formula (II): R^a is CH3, R^b is H, Y and Z together are O, T is —N(W(R^g))—, W is —(CH2)p—, p is 4, R^g is phenyl, R is —OH]	1.56	0.78	3.1	0.2	1.56	100	0.39	0.5	0.25	3.1	0.1	3.1	100	6.2	1.56	> 100	64	> 100	0.39	1	Antibacterial Activity (MIC) [18]: 0.2 µg/mL; Antibacterial Activity (MIC) [19]: 3.1 µg/mL; Antibacterial Activity (MIC) [20]: 25 µg/mL; Antibacterial Activity (MIC) [21]: 1.56 µg/mL; Antibacterial Activity (MIC) (Candida albicans CCH 442): 100 µg/mL; Antibacterial Activity (MIC) [22]: 32 µg/mL; Antibacterial Activity (MIC) [23]: 0.39 µg/mL
